Tests used:
[1] = Dimensions (size, PDI) of DNPs co-assembled from IAJDs and Luc-mRNA by DLS; format: physicochemical
Description: Dynamic Light Scattering (DLS) for the DNPs was performed in buffer with a Malvern Instruments particle sizer (Zetasizer Nano S, Malvern Instruments, UK) equipped with 4 mW He—Ne laser 633 nm and avalanche photodiode positioned at […] to the beam and temperature-controlled cuvette holder. Instrument parameters were determined automatically along with measurement times.
Formulation of DNPs Containing mRNA-Luc: IAJDs were dissolved in ethanol with various initial concentrations (5-160 mg/mL). Nucleoside-modified mRNA encoding firefly luciferase (mRNA-Luc) was dissolved in water with various initial concentrations (1-4 mg/mL). 12.5 μL of mRNA solution was placed into a clean RNAs free eppendorf (1.5 mL) and mixed with 463 μL of citrate buffer (10 mM, pH 3.0)/acetate buffer (10 mM). For encapsulation of mRNA into IAJDs, 25 μL of IAJDs of the ethanol stock solution was rapidly injected into mRNA solution in citrate or acetate buffer followed by vortex for 5 seconds.
Dynamic Light Scattering (DLS) for the sizes and polydispersities of DNPs was performed on a Malvern Instruments particle sizer (Zetasizer Nano S, Malvern Instruments, UK) equipped with 4 mW He—Ne laser 633 nm and avalanche photodiode positioned at […] to the beam and temperature-controlled cuvette holder. Instrument parameters were determined automatically along with measurement times. Sample solution (0.4 mL) was placed in a semi-micro cuvette (1.6 mL, polystyrene, 10×10×45 mm, manufactured by Greiner Bio-One) and the measurements were performed at 23° C.
Formulation of DNPs obtained by co-assembly of IAJDs and Luc-mRNA was performed as follows. IAJDs were dissolved in ethanol with an initial concentration of 80 mg/mL. Nucleoside-modified mRNA encoding firefly luciferase (Luc-mRNA) was dissolved in UltraPure DNase/RNase-free distilled water with an initial concentration of 4.0 mg/mL. 12.5 μL of Luc-mRNA solution was placed into a clean RNAs free eppendorf (1.5 mL) and 463 μL acetate buffer (10 mM, pH 4.0) was added. Then, 25 μL of IAJD in the ethanol stock solution was rapidly injected into the Luc-mRNA solution in acetate buffer followed by vortex for 5 seconds.
Dynamic Light Scattering (DLS) for the dimensions (sizes and polydispersities) of DNPs was performed on a Malvern Instruments particle sizer (Zetasizer Nano S, Malvern Instruments, UK) equipped with 4 mW He—Ne laser 633 nm and avalanche photodiode positioned at 175° to the beam and temperature-controlled cuvette holder. Instrument parameters were set up automatically along with measurement times. Sample solution (c.a. 0.4 mL) was placed in a semi-micro cuvette (1.6 mL, polystyrene, 10×10×45 mm, Greiner Bio-One) and the measurements were performed at 23° C.
Formulation of DNPs Co-assembled from IAJDs and Luc-mRNA: nucleoside-modified mRNA encoding firefly luciferase (Luc-mRNA) was dissolved in UltraPure DNase/RNase-free distilled water with an initial concentration of 4.0 mg/mL. IAJD molecules were dissolved in ethanol with an initial concentration of 80 mg/mL. 12.5 μL of Luc-mRNA solution was taken and placed into a clean RNAs free eppendorf (1.5 mL). Then 463 μL of acetate buffer (10 mM, pH 4.0) was added. Afterwards, 25 μL of IAJD in the ethanol stock solution was taken and rapidly injected into the above Luc-mRNA solution in acetate buffer followed by vortex for 5 seconds.

BALB/c mice = assay: In vivo mRNA delivery in mice with DNPs, whole-body bioluminescence imaging (IVIS); details: for In vivo activity (total flux, p/s): Table 19, nonsymmetric IAJDs; for Total flux (p/s): IVIS imaging 4 h after Luc-mRNA-IAJD injection
Description: The exposure time was 1 min.
Luminescence characterization for in vivo transfection experiments employed bioluminescence imaging with an IVIS Spectrum imaging system (PerkinElmer, Waltham, MA). Mice were anesthetized with 3% of isoflurane (Piramal Healthcare Limited) and intraperitoneally (i.p.) administered with D-luciferin (Regis Technologies) at a dose of 150 mg/kg of body weight. Ten minutes post administration of D-luciferin, mice were placed on the imaging platform while being maintained on isoflurane via a nose cone and imaged using an exposure time of 60 seconds. […] To quantify luminescent flux, an oval ROI was placed over each organ of interest and analyzed.
Tissue luminescence signal was measured on the IVIS imaging system using an exposure time of 60 seconds using medium binning (binning=8) to ensure that the signal obtained was within operative detection range. […] Bioluminescence imaging was performed as described above.
Luminescence Characterization for In Vivo Transfection Experiments: bioluminescence imaging was performed with an IVIS Spectrum imaging system (PerkinElmer, Waltham, MA).

[2] = Table 16, DNPs from IAJD 4 mg/mL and Luc-mRNA 0.10 mg/mL by injection in acetate buffer (10 mM, pH 4.0)
[3] = Table 17, DNPs used in vivo, IAJD 4 mg/mL, Luc-mRNA 0.10 mg/mL, acetate pH 4.0
[4] = Table 12, DNPs, IAJD 4 mg/mL + Luc-mRNA 0.10 mg/mL, acetate buffer 10 mM pH 4.0
[5] = Table 13, DNPs, IAJD 4 mg/mL + Luc-mRNA 0.10 mg/mL, acetate buffer pH 4.0
[6] = Table 14, DNPs, IAJD 4 mg/mL + Luc-mRNA 0.10 mg/mL, acetate buffer pH 4.0
[7] = Acetate buffer 10 mM pH 4.0, CIAJD 4 mg/mL, CLuc-mRNA 0.05 mg/mL
[8] = Acetate buffer 10 mM pH 4.0, CIAJD 4 mg/mL, CLuc-mRNA 0.10 mg/mL
[9] = DNP for in vivo, CIAJD 4.0 mg/mL, CLuc-mRNA 0.1 mg/mL, acetate buffer pH 4.0

Compound	PDI [1, 2]	Size (d, nm) [1, 2] [nm]	PDI [1, 3]	Size (d, nm) [1, 3] [nm]	further results
CCCCCCCCCCCOc1cc(COC(=O)c2cc(OCCOCCOCCCC(=O)CCCN3CCCCC3)c(OCCOCCOCCOCc3ccccc3)c(OCCOCCOCCOC(=O)CCCN3CCCCC3)c2)cc(OCC(CC)CCCC)c1 (stereo not shown) [IAJD 155]	0.279	83	0.279	83	
CCCCCCCCCCCCCCCOc1cc(COC(=O)c2cc(OCCOCCOCCCC(=O)CCCN3CCCCC3)c(OCCOCCOCCOCc3ccccc3)c(OCCOCCOCCOC(=O)CCCN3CCCCC3)c2)cc(OCCCCCCCCCCC)c1 [IAJD 157]	0.238	68	0.238	68	
CCCCCCCCCCCCOc1cc(COC(=O)c2cc(OCCOCCOCCCC(=O)CCCN3CCCCC3)c(OCCOCCOCCOCc3ccccc3)c(OCCOCCOCCOC(=O)CCCN3CCCCC3)c2)cc(OCCCCCCCCCCCC)c1 [IAJD 110]	0.274	111	0.274	111	
CCCCCCCCCCCOc1cc(COC(=O)CCCN2CCN(CCO)CC2)cc(OCCCCCCCCCC)c1 [IAJD 115, 3-(Decyloxy)-5-(undecyloxy)benzyl 4-(4-(2-hydroxyethyl)piperazin-1-yl)butanoate]	0.367	123	0.367	123	In vivo activity (total flux, p/s) (BALB/c mice): 4.59 × 10^6 p/s
CCCCCCCCCCCCCCCCCOc1cc(CNC(=O)c2cc(OCCOCCOCCOC(=O)CCCN3CCCCC3)c(OCCCOCOCCOCc3ccccc3)c(OCCOCCOCCOC(=O)CCCN3CCCCC3)c2)cc(OCCCCCCCCCCCCCCCCC)c1 [IAJD 159]	0.218	91	0.218	91	increase of activity, amide vs ester interconnecting group (BALB/c mice; transition from 158(11/17) (ester) to 159(11/17) (amide)): about 6 fold
CCCCCCCCCCCOc1cc(COC(=O)CCCN2CCN(CCO)CC2)cc(OCCCCCCCC)c1 [IAJD 113, 3-(Octyloxy)-5-(undecyloxy)benzyl 4-(4-(2-hydroxyethyl)piperazin-1-yl)butanoate]	0.511	181	0.511	181	In vivo activity (total flux, p/s) (BALB/c mice): 1.70 × 10^7 p/s
CCCCCCCCCCCCCCCOc1cc(COC(=O)CCCN2CCN(CCO)CC2)cc(OCCCCCCCC)c1 [IAJD 138, 3-(Octyloxy)-5-(pentadecyloxy)benzyl 4-(4-(2-hydroxyethyl)piperazin-1-yl)butanoate]	0.305	99	0.305	99	In vivo activity (total flux, p/s) (BALB/c mice): 1.49 × 10^7 p/s
CCCCCCCCCCCCCCOc1cc(CNC(=O)CCCN2CCN(C)CC2)cc(OCCCCCCCCCCC)c1 [IAJD 133, 4-(4-Methylpiperazin-1-yl)-N-(3-(tetradecyloxy)-5-(undecyloxy)benzyl)butanamide]	0.414	228	0.414	228	
CCCCCCCCCCCCCCOc1cc(CNC(=O)CCCN2CCN(C)CC2)cc(OCCCCCCCCCCCCCC)c1 [IAJD 108, N-(3,5-bis(tetradecyloxy)benzyl)-4-(4-methylpiperazin-1-yl)butanamide]					Organs with luminescence (BALB/c mice; Table 13, mice, IVIS imaging 6 h after injection): Lung, spleen; PDI [1, 4]: 0.334; Size (d, nm) [1, 4]: 214 nm; PDI [1, 5]: 0.334; Size (d, nm) [1, 5]: 214 nm; PDI [1, 6]: 0.334; Size (d, nm) [1, 6]: 214 nm
CCCCCCCCCCCCOc1cc(COC(=O)CCCN2CCCCC2)cc(OCCCCCCCCCCCC)c1 [IAJD 65, 3,5-Bis(dodecyloxy)benzyl 4-(piperidin-1-yl)butanoate]					Total flux (p/s) (BALB/c mice; Table 13, mice): 0 p/s; Total flux (p/s) (BALB/c mice; Table 14, mice): 0 p/s; PDI [1, 4]: 0.249; Size (d, nm) [1, 4]: 241 nm; PDI [1, 5]: 0.249; Size (d, nm) [1, 5]: 241 nm; PDI [1, 6]: 0.249; Size (d, nm) [1, 6]: 241 nm
CCCCCCCCCCCCCCOc1cc(COC(=O)c2cc(OCCOCCOCCCC(=O)CCCN3CCCCC3)c(OCCOCCOCCOCc3ccccc3)c(OCCOCCOCCOC(=O)CCCN3CCCCC3)c2)cc(OCCCCCCCCCCC)c1 [IAJD 156]	0.236	75	0.236	75	
CCCCCCCCCCCCCCCCCOc1cc(COC(=O)c2cc(OCCOCCOCCCC(=O)CCCN3CCCCC3)c(OCCOCCOCCOCc3ccccc3)c(OCCOCCOCCOC(=O)CCCN3CCCCC3)c2)cc(OCCCCCCCCCCC)c1 [IAJD 158]	0.246	75	0.246	75	
CCCCCCCCCCCOc1cc(COC(=O)c2cc(OCCOCCOCCCC(=O)CCCN3CCCCC3)c(OCCOCCOCCOCc3ccccc3)c(OCCOCCOCCOC(=O)CCCN3CCCCC3)c2)cc(OCCCCCCCCCCC)c1 [IAJD 111]	0.232	99	0.232	99	
Diheptyl 5,5′-((5-(((4-(4-methylpiperazin-1-yl)butanoyl)oxy)methyl)-1,3-phenylene)bis(oxy)) dipentanoate [IAJD 85]					PDI [1, 7]: 0.352; Size (d, nm) [1, 7]: 99 nm; PDI [1, 8]: 0.254; Size (d, nm) [1, 8]: 115 nm; PDI ([1]; Citrate buffer 10 mM pH 3.0, CIAJD 4 mg/mL, CLuc-mRNA 0.05 mg/mL): 0.361; PDI [1, 9]: 0.254; Size (d, nm) [1, 9]: 115 nm
